From ChEMBL document CHEMBL5215010, “Dothideomins A-D, Antibacterial Polycyclic Bisanthraquinones from the Endophytic Fungus Dothideomycetes sp. BMC-101” (2022)
Values after ≈ are worked out from the molar mass of the structure shown.

How the values were obtained:
Format in all cases: functional
[1] = system: Staphylococcus epidermidis; assay: Antibacterial activity against Staphylococcus epidermidis assessed as bacterial growth inhibition by CLSI protocol based broth microdilution assay
Staphylococcus aureus = assay: Antibacterial activity against Staphylococcus aureus assessed as bacterial growth inhibition by CLSI protocol based broth microdilution assay
Mycolicibacterium phlei = assay: Antibacterial activity against Mycobacterium phlei assessed as bacterial growth inhibition by CLSI protocol based broth microdilution assay
Bacillus subtilis = assay: Antibacterial activity against Bacillus subtilis assessed as bacterial growth inhibition by CLSI protocol based broth microdilution assay

Row | MIC [1] [µg/mL] | MIC (Staphylococcus aureus) [µg/mL] | MIC (Mycolicibacterium phlei) [µg/mL] | MIC (Bacillus subtilis) [µg/mL] | SMILES
1 | 0.4 (≈ 0.754 µM) | 0.4 (≈ 0.754 µM) | 0.8 (≈ 1.51 µM) | 0.4 (≈ 0.754 µM) | Cc1cc(O)c2c(c1)C(=O)[C@]13C[C@H](O)C4C1[C@@H](O)[C@H](C(O)=C3C2=O)[C@@]12O[C@@]41C(=O)c1cc(C)cc(O)c1C2=O (stereo not given in full)
2 | 1.6 (≈ 3.11 µM) | 1.6 (≈ 3.11 µM) | 1.6 (≈ 3.11 µM) | 1.6 (≈ 3.11 µM) | Cc1cc(O)c2c(c1)C(=O)C1=C(C2=O)[C@H]2C(O)=C3C(=O)c4c(O)cc(C)cc4C(=O)[C@@]34C[C@H](O)C1C4[C@H]2O (stereo not given in full)
3 | 0.4 (≈ 0.781 µM) | 0.4 (≈ 0.781 µM) | 0.4 (≈ 0.781 µM) | 0.4 (≈ 0.781 µM) | Cc1cc(O)c2c(c1)C(=O)C1=C(C2=O)[C@H]2C(O)=C3C(=O)c4c(O)cc(C)cc4C(=O)[C@@]34CC(=O)C1C4[C@H]2O (stereo not given in full)
4 | 3.3 (≈ 6.2 µM) | 6.5 (≈ 12.2 µM) | 6.5 (≈ 12.2 µM) | 6.5 (≈ 12.2 µM) | Cc1cc(O)c2c(c1)C(=O)[C@]13C[C@H](O)C4C1[C@@H](O)[C@H](C(O)=C3C2=O)[C@@]12O[C@@]41C(=O)c1cc(C)cc(O)c1[C@H]2O (stereo not given in full)
5 | 1.5 (≈ 4.64 µM) | 0.3 (≈ 0.928 µM) | 1.3 (≈ 4.02 µM) | 0.8 (≈ 2.48 µM) | O=C(N[C@H](CO)[C@H](O)c1ccc([N+](=O)[O-])cc1)C(Cl)Cl [CHLORAMPHENICOL]
